Assay results reported in ChEMBL document CHEMBL1144098, “Laxifloranone, a new phloroglucinol derivative from Marila laxiflora” (J Nat Prod, 1999).
In brackets after ≈: the same amount, converted by molar mass. Activity calls are given as the source filed them. No cut-off for these calls is given here.

Legend:
[1] = test system: Human immunodeficiency virus 1; assay: Antiviral activity against HIV1 in human CEM-SS cells assessed as cytoprotection against virus-induced cytopathogenicity; assay type: functional
[2] = test system: Human immunodeficiency virus 1; assay: Antiviral activity against HIV1 in human CEM-SS cells assessed inhibition of virus-induced cytopathic effects; assay type: functional, organism-based
[3] = Human immunodeficiency virus 1, CEM-SS

EC50 [2, 3] [µg/mL]	IC50 [2, 3] [µg/mL]	SMILES	Activity [1]	Activity [2]
		CCOC(=O)NN(OC(=O)C[C@H](c1ccccc1)[C@@]12C(=O)[C@@](CC=C(C)C)(C[C@@H](CC=C(C)C)C1(C)C)C(=O)C(C(=O)CC(C)C)=C2O)C(=O)OCC	inactive	inactive
0.62 (≈ 1.1 µM)	6.6 (≈ 11.7 µM)	CC(C)=CC[C@@H]1C[C@@]2(CC=C(C)C)C(=O)C(C(=O)CC(C)C)=C(O)[C@]([C@H](CC(=O)O)c3ccccc3)(C2=O)C1(C)C [LAXIFLORANONE]	80%	
